Assay results: patent US9557319B2, “Cell-based arrays, methods of making, and methods of using” (University of Florida Research Foundation, Inc., priority 2010, dated 2017)
Read-outs that look alike come from different tables or passages of the source. Marks after values point to notes of the source that are not given here.

Experiments:
[1] = test system: HCT116 cells; experiment: Apoptosis of HCT116 cells incubated with soluble drugs in 96-well plates; type: cell-based, human; details: soluble drug, 24 h
Experimental: (§1) FIGS. 12A-12D are a series of graphs illustrating apoptosis and proliferation dose-response curves from HCT116 cells incubated with soluble drugs. FIG. 12A illustrates the percent of apoptotic HCT116 cells incubated 24 h with soluble nutlin-3a. […] Significant differences were determined by ANOVA, {F(5,282)=19.694, p<0.05}, followed by Tukey's post-hoc analysis. FIG. 12C illustrates the percent of non-proliferating HCT116 cells incubated 24 h with soluble nutlin-3a. Significant differences were determined by ANOVA, {F(4,226)=12.643, p<0.05}, followed by Tukey's post-hoc analysis. […] Significant differences were determined by ANOVA, {F(5,252)=102.485, p<0.05}, followed by Tukey's post-hoc analysis. (*: p<0.05 compared to all other conditions, #:p<0.05 from all conditions marked *).
(§2) Results were corroborated using soluble drugs in 96-well plates (FIGS. 12A-D).

[2] = Loading efficiency of small molecules in microarrayed EVA films; type: physicochemical
Experimental: To embed molecules into the polymer matrix, they were first dissolved in an appropriate solvent, depending on their respective hydrophobicity. A stock solution of azide (99%, Acros), a hydrophilic molecule, was dissolved in dH2O whereas Nutlin-3a (EMD Chemicals, Gibbstown, N.J.) and camptothecin (Sigma), both hydrophobic molecules, were dissolved in DMSO. Dissolved drugs were then added to 5% EVA at a 1:10 ratio of solvent:EVA. Prior to printing, polymer mixtures were vortexed for 30 s and then homogenized for 1 min before being loaded onto the source plate of the robotic mini-arrayer.
To determine the loading efficiency of factors, polymer formulations were made as described above. Films derived from 100 μl EVA loaded with factors were then made on glass coverslips and allowed to dry overnight under vacuum. Films were removed from the glass substrates and weighed. Films were washed briefly with PBS before being placed in 1 ml toluene to dissolve the polymer. Samples were then analyzed using a Nanodrop-ND-1000 spectrophotometer. Standard curves were generated for each factor, and loading efficiency was calculated as the percent of drug embedded in the polymer compared to the theoretical drug concentration.

[3] = test system: CA2 CCSCs; experiment: CA2 patient-derived CCSC proliferation on drug-eluting microarray; type: cell-based, human; details: for proliferation with increasing drug exposure: CA2 cells, single drug; for drug sensitivity (1/D50) / Emax: non-proliferation
Experimental: (§3) ALDH^high spheres were generated from tumor cells obtained from patients with colon cancer. Isolated cells were cultured in serum-free media as previously described^14 (reference 14 is hereby incorporated by reference herein with respect to methods for culturing cells in serum-free media). Using these cultures, adherent cell growth was established with 0.1% gelatin (Millipore) coatings on tissue culture plates (TPP, Switzerland) and the cells were serially propagated. For CA1 and CA2 cells, 25,000 cells were tested per array. Cells were seeded in PBS with 0.1% gelatin and treated identically to the microarrays with HCT116.
(§4) Camptothecin-loaded microarrays were stained with Annexin V (BD Pharminigen), fixed in 4% paraformaldehyde, and placed in PBS with Hoechst dye 34580 (Invitrogen, USA) for 30 min. Azide-loaded microarrays were fixed with 4% paraformaldehyde and incubated with PBS containing Hoechst 34580 dye. Finally, nutlin-3a-loaded microarrays were fixed with 4% paraformaldehyde, stained with BrdU (BD Bioscience, San Jose, Calif.), and incubated in PBS containing Hoechst 34580 dye. All arrays were mounted with Fluoro-Gel (Electron Microscope Sciences, Hatfield, Pa.) and imaged using an Axiovert 200M microscope (Carl Zeiss, Oberkochen, Germany). Analysis was performed with Axiovision (Carl Zeiss, Oberkochen, Germany) by quantifying, in each drug-eluting island, the area of fluorescence and reported as relative fluorescence intensity (RFI).
(§5) Proliferation values were normalized to control (0 μM drug). Values for concentration-response curves were transformed to non-proliferation by subtracting the normalized value from 100%. Curve fitting analysis was performed to obtain Emax and D50 values using the equation E=E0+(Emax×D)/(D+D50) where E is the effect (either non-proliferation or apoptosis), E0 is the initial value, Emax is the maximum effect, D is the dose, and D50 is the dose at which a 50% maximum effect (Emax) is observed^34. Drug sensitivity values were obtained by taking the inverse of the D50 and multiplying by 100. Those values marked with “#” indicate that the r^2 value of the curve-fit was below 0.65. N/A values are present where negative parameters were obtained.

[4] = test system: CA1 CCSCs; experiment: CA1 patient-derived CCSC proliferation on drug-eluting microarray; type: cell-based, human; details: for proliferation with increasing drug exposure: CA1 cells, single drug; for drug sensitivity (1/D50) / Emax: non-proliferation
Experimental: as §3, §4, §5

[5] = Drug release from microarrayed drug-loaded EVA islands; type: physicochemical; details: release from drug-loaded EVA microarray, followed by steady release
Experimental: For drug release studies, polymer formulations were again made as described above. Glass coverslips were weighed prior to printing. Arrays consisting of 900 drug-loaded polymer islands were manufactured and allowed to dry overnight. Samples were weighed and placed in 3 ml of PBS containing 0.1% Tween-80 at 37° C. with gentle agitation. Samples were taken at the specified times and analyzed.

[6] = test system: HCT116 cells; experiment: Proliferation of HCT116 cells incubated with soluble drugs in 96-well plates; type: cell-based, human; details: soluble drug, 24 h
Experimental: as §1, §2

[7] = Nutlin dose response, 2nd drug CPT 0 μM, CA2
[8] = Nutlin dose response, 2nd drug CPT 1 μM, CA2
[9] = Nutlin dose response, 2nd drug CPT 10 μM, CA2
[10] = Nutlin dose response, 2nd drug CPT 50 μM, CA2
[11] = Nutlin dose response, 2nd drug CPT 50 μM, CA1

**Q.** Which results are given for CC[C@@]1(O)C(=O)OCc2c1cc1n(c2=O)Cc2cc3ccccc3nc2-1 [Camptothecin]?
**A.** effect on inducing apoptosis of HCT116 cells [1]: dose-dependent effect; Loading efficiency (%) [2]: 92 +/− 3%; proliferation with increasing drug exposure [3]: decreasing proliferation; drug sensitivity (1/D50) ([3]; Camptothecin dose response, 2nd drug NUT 0 μM, CA2): 133 +/− 5.3* ^; drug sensitivity (1/D50) ([3]; Camptothecin dose response, 2nd drug NUT 1 μM, CA2): 1.60 +/− 7.9* ^; drug sensitivity (1/D50) ([3]; Camptothecin dose response, 2nd drug NUT 125 μM, CA2): 0.00 +/− 1.01^#; Emax ([3]; Homo sapiens, Camptothecin dose response, 2nd drug NUT 0 μM, CA2, read-out: Emax): 46.6%; Emax ([3]; Homo sapiens, Camptothecin dose response, 2nd drug NUT 1 μM, CA2, read-out: Emax): 52.3%; Emax ([3]; Homo sapiens, Camptothecin dose response, 2nd drug NUT 25 μM, CA2, read-out: Emax): 43.9%; proliferation with increasing drug exposure [4]: decreasing proliferation; drug sensitivity (1/D50) ([4]; Camptothecin dose response, 2nd drug NUT 0 μM, CA1): 10.8 +/− 16; drug sensitivity (1/D50) ([4]; Camptothecin dose response, 2nd drug NUT 1 μM, CA1): 1.97 +/− 7.7; drug sensitivity (1/D50) ([4]; Camptothecin dose response, 2nd drug NUT 25 μM, CA1): 3.18 +/− 0.40; drug sensitivity (1/D50) ([4]; Camptothecin dose response, 2nd drug NUT 125 μM, CA1): 0.62 +/− 1.8; Emax ([4]; Homo sapiens, Camptothecin dose response, 2nd drug NUT 0 μM, CA1, read-out: Emax): 61.9%; Emax ([4]; Homo sapiens, Camptothecin dose response, 2nd drug NUT 1 μM, CA1, read-out: Emax): 105%; Emax ([4]; Homo sapiens, Camptothecin dose response, 2nd drug NUT 25 μM, CA1, read-out: Emax): 109%; Emax ([4]; Homo sapiens, Camptothecin dose response, 2nd drug NUT 125 μM, CA1, read-out: Emax): 221%; burst release duration [5]: approximately 24 h; effect on reducing proliferation of HCT116 cells [6]: dose-dependent effect

**Q.** With COc1ccc(C2=N[C@@H](c3ccc(Cl)cc3)[C@@H](c3ccc(Cl)cc3)N2C(=O)N2CCNC(=O)C2)c(OC(C)C)c1 [Nutlin-3a] as the molecule, how does the “effect on inducing apoptosis of HCT116 cells” value [1] read?
**A.** no effect

**Q.** And the “Loading efficiency (%)” value [2]?
**A.** 81 +/− 7%

**Q.** And the “decrease in Emax of the concentration response curve to nutlin-3a” value ([3]; 50 μM camptothecin present vs nutlin-3a alone, CA2, not significant (p=0.097))?
**A.** 53%

**Q.** And the “proliferation with increasing drug exposure” value [3]?
**A.** decreasing proliferation

**Q.** What about the Emax [3, 7] of the same molecule?
**A.** 73.3 +/− 9.3*

**Q.** And the “drug sensitivity (1/D50)” value [3, 7]?
**A.** 171 +/− 49 ^

**Q.** What about the Emax [3, 8] of the same molecule?
**A.** 43.8 +/− 11

**Q.** What about the “drug sensitivity (1/D50)” value [3, 8] of the same molecule?
**A.** 189 +/− 328 ^

**Q.** What about the Emax [3, 9] of the same molecule?
**A.** 57.0 +/− 39

**Q.** What about the “drug sensitivity (1/D50)” value [3, 9] of the same molecule?
**A.** 0.95 +/− 4.6^#

**Q.** And the Emax [3, 10]?
**A.** 34.1 +/− 9.3*

**Q.** And the “drug sensitivity (1/D50)” value [3, 10]?
**A.** 303 +/− 260 ^

**Q.** And the “increase in sensitivity to nutlin-3a” value ([4]; 10 μM camptothecin present vs nutlin-3a alone, CA1)?
**A.** 75%

**Q.** And the “increase in Emax of the nutlin-3a concentration response curve” value ([4]; 50 μM camptothecin present vs nutlin-3a alone, CA1)?
**A.** 115%

**Q.** What about the “proliferation with increasing drug exposure” value [4] of the same molecule?
**A.** decreasing proliferation

**Q.** What about the Emax ([4]; Nutlin dose response, 2nd drug CPT 0 μM, CA1) of the same molecule?
**A.** 38.0

**Q.** What about the “drug sensitivity (1/D50)” value ([4]; Nutlin dose response, 2nd drug CPT 0 μM, CA1, listed as Nutlin) of the same molecule?
**A.** 28.6 +/− 4.7*

**Q.** And the “drug sensitivity (1/D50)” value ([4]; Nutlin dose response, 2nd drug CPT 0 μM, CA1, listed as nutlin-3a)?
**A.** 28.6

**Q.** What about the Emax ([4]; Nutlin dose response, 2nd drug CPT 1 μM, CA1) of the same molecule?
**A.** 34.7 +/− 5.9

**Q.** What about the Emax ([4]; Nutlin dose response, 2nd drug CPT 10 μM, CA1) of the same molecule?
**A.** 50.9 +/− 0.15

**Q.** What about the “drug sensitivity (1/D50)” value ([4]; Nutlin dose response, 2nd drug CPT 10 μM, CA1, listed as Nutlin) of the same molecule?
**A.** 50.0 +/− 1.3*

**Q.** What about the “drug sensitivity (1/D50)” value ([4]; Nutlin dose response, 2nd drug CPT 10 μM, CA1, listed as nutlin-3a) of the same molecule?
**A.** 50.0

**Q.** What about the Emax [4, 11] of the same molecule?
**A.** 81.7

**Q.** What about the “drug sensitivity (1/D50)” value [4, 11] of the same molecule?
**A.** 55.6 +/− 180

**Q.** What about the burst release duration [5] of the same molecule?
**A.** approximately 8 h

**Q.** What about the “effect on reducing proliferation of HCT116 cells” value [6] of the same molecule?
**A.** dose-dependent effect
